Molecular target: T1, factor D (Homo sapiens, UniProt P00746)
T1 construct: made in house; host or cells: E. coli
Assay: factor D inhibition assay of Biological Example 2
Format: biochemical

T1 sequence (P00746 26-253): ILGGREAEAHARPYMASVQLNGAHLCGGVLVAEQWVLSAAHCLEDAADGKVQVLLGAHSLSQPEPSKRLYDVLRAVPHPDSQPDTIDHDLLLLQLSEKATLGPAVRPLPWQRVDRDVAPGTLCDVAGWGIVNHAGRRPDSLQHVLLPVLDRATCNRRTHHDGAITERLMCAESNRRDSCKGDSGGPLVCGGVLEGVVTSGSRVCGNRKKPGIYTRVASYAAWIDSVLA

Row | IC50 | Structure (SMILES)
1 | 19 nM | CNC(c1cc(COc2ccccc2CC(=O)O)cc(-c2cccc(CN)c2)c1)C(F)(F)F (stereo not drawn) [Example 208-A]
2 | 14 nM | N[C@H](CO)c1cccc(-c2cccc(COc3ccccc3CC(=O)O)c2)c1Cl [Example 141-B, (S)-2-(2-((3′-(1-Amino-2-hydroxyethyl)-2′-chloro-[1,1′-biphenyl]-3-yl)methoxy)phenyl)acetic acid]
3 | 122 nM | C[C@@H](O)[C@@H](N)c1cccc(-c2cccc(COc3ccccc3CC(=O)O)c2)c1 [Example 190-G]
4 | 10 nM | C[C@@H](N)c1cccc(-c2cc(COc3ccccc3CC(=O)O)cc(N3CCC3)c2)c1F [Example 247, (R)-2-(2-((3′-(1-aminoethyl)-5-(azetidin-1-yl)-2′-fluoro-[1,1′-biphenyl]-3-yl)methoxy)phenyl)acetic acid]
5 | 6 nM | N[C@H](CO)c1cccc(-c2cc(COc3ccccc3CC(=O)O)cc(C(O)C(F)(F)F)c2)c1 (mixture of isomers) [116-G a), 2-(2-((3′-((S)-1-amino-2-hydroxyethyl)-5-(2,2,2-trifluoro-1-hydroxyethyl)-[1,1′-biphenyl]-3-yl)methoxy)phenyl)acetic acid]
6 | 6 nM | NC(CF)c1cccc(-c2cc(COc3ccccc3CC(=O)O)cc(NCC3CCCC3)c2)c1F (stereo not drawn) [Example 216-E]
7 | 7 nM | NCc1cccc(-c2cc(-c3ccccc3)cc(C(=O)Nc3ccccc3CC(=O)O)n2)c1 [Example 52, 2-(2-(6-(3-(Aminomethyl)phenyl)-4-phenylpicolinamido)phenyl)acetic acid]
8 | 24 nM | Cc1cc(-c2cccc([C@H](N)CO)c2)cc(COc2ccccc2CC(=O)O)n1 [Example 185, (S)-2-(2-((4-(3-(1-Amino-2-hydroxyethyl)phenyl)-6-methylpyridin-2-yl)methoxy)phenyl)acetic acid]
9 | 31 nM | C[C@@H](N)c1cccc(-c2cc(COc3ccccc3CC(=O)O)cc(N(C)CC3CCCC3)c2)c1F [Example 216-F]
10 | 53 nM | C[C@@H](N)c1cccc(-c2cc(COc3ccccc3CC(=O)O)cc(CN3CCOCC3)c2)c1F [Example 216-AE]
11 | 13 nM | C[C@@H](N)c1cccc(-c2cc(CCC3CNCCO3)cc(COc3ccccc3CC(=O)O)c2)c1F (stereo partly drawn) [Example 239-C, 2-(2-((3′-((R)-1-aminoethyl)-2′-fluoro-5-(2-(morpholin-2-yl)ethyl)-[1,1′-biphenyl]-3-yl)methoxy)phenyl)acetic acid]
12 | 3 nM | CCN(C[C@@H]1CCCO1)c1cc(COc2ccccc2CC(=O)O)cc(-c2cccc([C@@H](C)N)c2F)c1 [Example 216-J]
13 | 700 nM | C[C@@H](N)c1cccc(-c2cc(COc3ccccc3CC(=O)O)cc(OCC3CCCC3)c2)c1F [Example 214-H]
14 | 4 nM | NCc1cccc(-c2cc(COc3ccccc3CC(=O)O)cc(OC[C@H]3CCCO3)c2)c1F [Example 234-B, (R)-2-(2-((3′-(aminomethyl)-2′-fluoro-5-((tetrahydrofuran-2-yl)methoxy)-[1,1′-biphenyl]-3-yl)methoxy)phenyl)acetic acid]
15 | 107 nM | CC(=O)N(C)c1cc(COc2ccccc2CC(=O)O)cc(-c2cccc([C@@H](C)N)c2F)c1 [Example 229, (R)-2-(2-((3′-(1-aminoethyl)-2′-fluoro-5-(N-methylacetamido)-[1,1′-biphenyl]-3-yl)methoxy)phenyl)acetic acid]
16 | 22 nM | C[C@H](N)c1cccc(-c2cccc(COc3ccccc3CC(=O)O)c2)c1F [Example 142-H]
17 | 80 nM | NCc1cc(F)cc(-c2cc(Br)cc(C(=O)Nc3ccccc3CC(=O)O)c2)c1 [Example 12, 2-(2-(3′-(Aminomethyl)-5-bromo-5′-fluoro-[1,1′-biphenyl]-3-ylcarboxamido)phenyl)acetic acid]
18 | 30 nM | N[C@H](CO)c1cccc(-c2ccc(C(F)(F)F)c(COc3ccccc3CC(=O)O)c2)c1 [Example 167, (S)-2-(2-((3′-(1-Amino-2-hydroxyethyl)-4-(trifluoromethyl)-[1,1′-biphenyl]-3-yl)methoxy)phenyl)acetic acid]
19 | 22 nM | NCc1cccc(-c2cc(COc3ccccc3CC(=O)O)cc(NCC3CC3)c2)c1 [Example 139, 2-(2-((3′-(Aminomethyl)-5-((cyclopropylmethyl)amino)-[1,1′-biphenyl]-3-yl)methoxy)phenyl)acetic acid]
20 | 13 nM | COC(C)c1cc(COc2ccccc2CC(=O)O)cc(-c2cccc([C@@H](C)N)c2)c1 (mixture of isomers) [Example 119-B, 2-(2-((3′-((R)-1-Aminoethyl)-5-(1-methoxyethyl)-[1,1′-biphenyl]-3-yl)methoxy)phenyl)acetic acid (mixture of diastereomers)]
21 | 5 nM | C[C@@H](N)c1cccc(-c2cc(COc3ccccc3CC(=O)O)cc(OCc3nccs3)c2)c1F [Example 214-B]
22 | 6 nM | C[C@H](N)c1cccc(-c2cc(COc3ccccc3CC(=O)O)cc(NCC3CCCC3)c2)c1F [Example 216-C]
23 | 346 nM | C[C@@H](N)c1cccc(-c2cccc(COc3ccccc3CC(=O)O)c2)c1Cl [Example 142-A]
24 | 56 nM | NCc1cccc(-c2cccc(COc3ccccc3CC(=O)O)c2)c1O [Example 144-C, 2-(2-((3′-(Aminomethyl)-2′-hydroxy-[1,1′-biphenyl]-3-yl)methoxy)phenyl)acetic acid]
25 | 147 nM | C[C@@H](N)c1cccc(-c2cc(COc3ccccc3CC(=O)O)cc(C(=O)N(C)C)c2)c1F [Example 216-R]
26 | 55 nM | C[C@@H](N)c1cccc(-c2cc(NC[C@@H]3CCCO3)cc(N(C)Cc3ccccc3CC(=O)O)c2)c1F [Example 216-AB]
27 | 2 nM | C[C@@H](N)c1cccc(-c2cc(COc3ccccc3CC(=O)O)cc(OC[C@H]3CCCO3)c2)c1F [Example 232, 2-(2-((3′-((R)-1-aminoethyl)-2′-fluoro-5-(((R)-tetrahydrofuran-2-yl)methoxy)-[1,1′-biphenyl]-3-yl)methoxy)phenyl)acetic acid]
28 | 21 nM | C[C@@H](N)c1cccc(-c2cc(CO)cc(COc3ccccc3CC(=O)O)c2)c1 [Example 116-A]

The next lines start with the molecule.

Row | Structure (SMILES) | IC50
29 | CCc1ccc(CC(=O)O)c(NC(=O)c2cccc(-c3cc(F)cc(CN)c3)n2)c1 [Example 21-O] | 12 nM
30 | CCOC(=O)Cc1ccccc1NC(=O)c1cc(NC(C)=O)cc(-c2cc(F)cc(CN)c2)c1 [Example 67-C, Ethyl 2-(2-(5-acetamido-3′-(aminomethyl)-5′-fluoro-[1,1′-biphenyl]-3-ylcarboxamido)phenyl)acetate] | 2930 nM
31 | NCc1cccc(-c2cc(OCC3CCCO3)cc(C(=O)Nc3ccccc3CC(=O)O)c2)c1 (racemic) [Example 63, (±)-2-(2-(3′-(Aminomethyl)-5-((tetrahydrofuran-2-yl)methoxy)-[1,1′-biphenyl]-3-ylcarboxamido)phenyl)acetic acid] | 16 nM
32 | C[C@@H](N)c1cccc(-c2cc(COCC(F)(F)F)cc(COc3ccccc3CC(=O)O)c2)c1F [Example 120-M] | 11 nM
33 | Cc1cc(-c2cccc([C@@H](C)N)c2F)cc(COc2ccccc2CC(=O)O)c1C [Example 283, (R)-2-(2-((3′-(1-aminoethyl)-2′-fluoro-4,5-dimethyl-[1,1′-biphenyl]-3-yl)methoxy)phenyl)acetic acid] | 13 nM
34 | N[C@H](CO)c1cccc(-c2cc(COc3ccccc3CC(=O)O)c(F)c(NCC3CCCO3)c2)c1 (stereo partly drawn) [155 b), 2-(2-((3′-((S)-1-Amino-2-hydroxyethyl)-4-fluoro-5-(((tetrahydrofuran-2-yl)methyl)amino)-[1,1′-biphenyl]-3-yl)methoxy)phenyl)acetic acid] | 4 nM
35 | Cc1ccc(COc2ccccc2CC(=O)O)cc1-c1cccc([C@@H](C)N)c1 [Example 116-M] | 1230 nM
36 | NCc1cc(F)cc(-c2cc(NC[C@@H]3CCCO3)cc(C(=O)Nc3ccccc3CC(=O)O)c2)c1 [Example 79-F] | 6 nM
37 | CC(O)c1ccc(NC(=O)c2cccc(-c3cc(F)cc(CN)c3)c2)c(CC(=O)O)c1 (stereo not drawn) [Example 24, 2-(2-(3′-(Aminomethyl)-5′-fluoro-[1,1′-biphenyl]-3-ylcarboxamido)-5-(1-hydroxyethyl)phenyl)acetic acid] | 1740 nM
38 | C[C@@H](N)c1cccc(-c2cc(COc3ccccc3CC(=O)O)cc(NCC(F)(F)F)c2)c1F [Example 226-C, (R)-2-(2-((3′-(1-aminoethyl)-2′-fluoro-5-((2,2,2-trifluoroethyl)amino)-[1,1′-biphenyl]-3-yl)methoxy)phenyl)acetic acid] | 8 nM
39 | C[C@@H](N)c1cccc(-c2cc(N)c(F)c(COc3ccccc3CC(=O)O)c2)c1F [Example 221 a), (R)-2-(2-((5-amino-3′-(1-aminoethyl)-2′,4-difluoro-[1,1′-biphenyl]-3-yl)methoxy)phenyl)acetic acid] | 6 nM
40 | N#Cc1ccc(COc2ccccc2CC(=O)O)cc1-c1cccc(CN)c1 [Example 289, 2-(2-((3′-(aminomethyl)-6-cyano-[1,1′-biphenyl]-3-yl)methoxy)phenyl)acetic acid] | 850 nM
41 | Cn1ccc(COc2cc(C(=O)Nc3ccccc3CC(=O)O)cc(-c3cc(F)cc(CN)c3)c2)n1 [Example 69, 2-(2-(3′-(Aminomethyl)-5′-fluoro-5-((1-methyl-1H-pyrazol-3-yl)methoxy)-[1,1′-biphenyl]-3-ylcarboxamido)phenyl)acetic acid] | 26 nM
42 | NCc1cc(F)cc(-c2cccc(C(=O)Nc3c(Cl)cccc3CC(=O)O)n2)c1 [Example 21-N] | 138 nM
43 | NC(CF)c1cccc(-c2cccc(COc3ccccc3CC(=O)O)c2)c1F (stereo not drawn) [Example 196-F] | 6 nM
44 | NC(c1ccccc1)c1cccc(-c2cccc(COc3ccccc3CC(=O)O)c2)c1 (stereo not drawn) [Example 196-C] | 313 nM
45 | C[C@@H](N)c1cccc(-c2cc(O)cc(COc3ccccc3CC(=O)O)c2)c1F [Example 214-R] | 7 nM
46 | NCc1cc(-c2cccc(COc3ccccc3CC(=O)O)c2)ccn1 [Example 138-G] | 12 nM
47 | Nc1cc(COc2ccccc2CC(=O)O)cc(-c2cccc([C@H](N)CO)c2)c1 [Example 133, (S)-2-(2-((5-amino-3′-(1-amino-2-hydroxyethyl)-[1,1′-biphenyl]-3-yl)methoxy)phenyl)acetic acid] | 9 nM
48 | N#CC[C@@H](N)c1cccc(-c2cccc(COc3ccccc3CC(=O)O)c2)c1 [Example 196-E] | 272 nM
